# Data taken from PubChem BioAssay (NCI).
#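 Briefly, cells in 96-well plates were exposed to five compound concentrations for 48 h, and endpoints were estimated by linear interpolation. GI50: concentration for 50% inhibition of growth. The concentration for full growth arrest is given as TGI.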
# What was measured:
# Assay in all cases: NCI-60 cell line screen, 48 h
# MDA-MB-231 breast = system: MDA-MB-231 breast
# NCI-H226 lung = system: NCI-H226 lung
# COLO 205 colon = system: COLO 205 colon
# OVCAR-8 ovarian = system: OVCAR-8 ovarian
# TK-10 renal = system: TK-10 renal
# UO-31 renal = system: UO-31 renal
# RPMI-8226 leukemia = system: RPMI-8226 leukemia
# HCT-116 colon = system: HCT-116 colon
# SK-MEL-5 melanoma = system: SK-MEL-5 melanoma
# U251 CNS = system: U251 CNS
# 786-0 renal = system: 786-0 renal
# OVCAR-3 ovarian = system: OVCAR-3 ovarian
# UACC-257 melanoma = system: UACC-257 melanoma
# KM12 colon = system: KM12 colon
# ACHN renal = system: ACHN renal
# HS 578T breast = system: HS 578T breast
# SF-295 CNS = system: SF-295 CNS
# SN12C renal = system: SN12C renal
# PC-3 prostate = system: PC-3 prostate
# OVCAR-5 ovarian = system: OVCAR-5 ovarian
# A498 renal = system: A498 renal
# HCT-15 colon = system: HCT-15 colon
# K-562 leukemia = system: K-562 leukemia
# CCRF-CEM leukemia = system: CCRF-CEM leukemia
# T-47D breast = system: T-47D breast
# SF-268 CNS = system: SF-268 CNS
# SNB-19 CNS = system: SNB-19 CNS
# MDA-MB-435 = system: MDA-MB-435
# SW-620 colon = system: SW-620 colon
# SF-539 CNS = system: SF-539 CNS
# OVCAR-4 ovarian = system: OVCAR-4 ovarian
# NCI/ADR-RES ovarian = system: NCI/ADR-RES ovarian
# MOLT-4 leukemia = system: MOLT-4 leukemia
# HT29 colon = system: HT29 colon
# HOP-62 NSCLC = system: HOP-62 NSCLC
# SK-MEL-28 melanoma = system: SK-MEL-28 melanoma
# SK-OV-3 ovarian = system: SK-OV-3 ovarian
# SNB-75 CNS = system: SNB-75 CNS
# HOP-92 NSCLC = system: HOP-92 NSCLC
# MCF7 breast = system: MCF7 breast
# HCC-2998 colon = system: HCC-2998 colon
# UACC-62 melanoma = system: UACC-62 melanoma
# NCI-H460 lung = system: NCI-H460 lung
# M14 melanoma = system: M14 melanoma
# LOX IMVI melanoma = system: LOX IMVI melanoma
# EKVX NSCLC = system: EKVX NSCLC
# A549 NSCLC = system: A549 NSCLC
# DU-145 prostate = system: DU-145 prostate
# BT-549 breast = system: BT-549 breast
# IGROV1 ovarian = system: IGROV1 ovarian
# RXF 393 renal = system: RXF 393 renal
# NCI-H522 lung = system: NCI-H522 lung
# MALME-3M melanoma = system: MALME-3M melanoma
# SK-MEL-2 melanoma = system: SK-MEL-2 melanoma
# NCI-H23 lung = system: NCI-H23 lung
# HL-60(TB) leukemia = system: HL-60(TB) leukemia
# CAKI-1 renal = system: CAKI-1 renal
compound,measurement,setting,value
CC[C@H](Nc1ncnc2nc[nH]c12)c1nc2cccc(F)c2c(=O)n1-c1ccccc1,GI50,MDA-MB-231 breast,29.8 µM
same,TGI,MDA-MB-231 breast,> 100 µM
same,GI50,NCI-H226 lung,> 65.6 µM
same,TGI,NCI-H226 lung,> 100 µM
same,GI50,COLO 205 colon,72.8 µM
same,TGI,COLO 205 colon,> 100 µM
same,GI50,OVCAR-8 ovarian,44.6 µM
same,TGI,OVCAR-8 ovarian,> 100 µM
same,GI50,TK-10 renal,12.5 µM
same,TGI,TK-10 renal,> 100 µM
same,GI50,UO-31 renal,3.5 µM
same,TGI,UO-31 renal,> 68.7 µM
same,GI50,RPMI-8226 leukemia,37.6 µM
same,TGI,RPMI-8226 leukemia,> 100 µM
same,GI50,HCT-116 colon,39.4 µM
same,TGI,HCT-116 colon,> 100 µM
same,GI50,SK-MEL-5 melanoma,26.1 µM
same,TGI,SK-MEL-5 melanoma,> 100 µM
same,GI50,U251 CNS,51.2 µM
same,TGI,U251 CNS,> 100 µM
same,GI50,786-0 renal,4.29 µM
same,TGI,786-0 renal,> 100 µM
same,GI50,OVCAR-3 ovarian,10.2 µM
same,TGI,OVCAR-3 ovarian,> 100 µM
same,GI50,UACC-257 melanoma,18.9 µM
same,TGI,UACC-257 melanoma,> 100 µM
same,GI50,KM12 colon,43.7 µM
same,TGI,KM12 colon,> 100 µM
same,GI50,ACHN renal,10.7 µM
same,TGI,ACHN renal,> 100 µM
same,GI50,HS 578T breast,4.12 µM
same,TGI,HS 578T breast,> 88.3 µM
same,GI50,SF-295 CNS,5.75 µM
same,TGI,SF-295 CNS,> 100 µM
same,GI50,SN12C renal,7.4 µM
same,TGI,SN12C renal,> 100 µM
same,GI50,PC-3 prostate,3.32 µM
same,TGI,PC-3 prostate,> 100 µM
same,GI50,OVCAR-5 ovarian,45 µM
same,TGI,OVCAR-5 ovarian,> 100 µM
same,GI50,A498 renal,1.3 µM
same,TGI,A498 renal,13 µM
same,GI50,HCT-15 colon,37.6 µM
same,TGI,HCT-15 colon,> 100 µM
same,GI50,K-562 leukemia,30.2 µM
same,TGI,K-562 leukemia,> 100 µM
same,GI50,CCRF-CEM leukemia,12.2 µM
same,TGI,CCRF-CEM leukemia,> 100 µM
same,GI50,T-47D breast,3.76 µM
same,TGI,T-47D breast,> 100 µM
same,GI50,SF-268 CNS,19.2 µM
same,TGI,SF-268 CNS,> 100 µM
same,GI50,SNB-19 CNS,39.3 µM
same,TGI,SNB-19 CNS,> 100 µM
same,GI50,MDA-MB-435,19.1 µM
same,TGI,MDA-MB-435,> 74.6 µM
same,GI50,SW-620 colon,79.7 µM
same,TGI,SW-620 colon,> 100 µM
same,GI50,SF-539 CNS,19.7 µM
same,TGI,SF-539 CNS,> 100 µM
same,GI50,OVCAR-4 ovarian,> 100 µM
same,TGI,OVCAR-4 ovarian,> 100 µM
same,GI50,NCI/ADR-RES ovarian,86.8 µM
same,TGI,NCI/ADR-RES ovarian,> 100 µM
same,GI50,MOLT-4 leukemia,13.9 µM
same,TGI,MOLT-4 leukemia,> 87.4 µM
same,GI50,HT29 colon,30 µM
same,TGI,HT29 colon,> 100 µM
same,GI50,HOP-62 NSCLC,> 100 µM
same,TGI,HOP-62 NSCLC,> 100 µM
same,GI50,SK-MEL-28 melanoma,13.7 µM
same,TGI,SK-MEL-28 melanoma,> 100 µM
same,GI50,SK-OV-3 ovarian,16.7 µM
same,TGI,SK-OV-3 ovarian,> 100 µM
same,GI50,SNB-75 CNS,0.715 µM
same,TGI,SNB-75 CNS,16.6 µM
same,GI50,HOP-92 NSCLC,4.86 µM
same,TGI,HOP-92 NSCLC,> 60.4 µM
same,GI50,MCF7 breast,8.73 µM
same,TGI,MCF7 breast,> 100 µM
same,GI50,HCC-2998 colon,58.6 µM
same,TGI,HCC-2998 colon,> 100 µM
same,GI50,UACC-62 melanoma,3.52 µM
same,TGI,UACC-62 melanoma,> 92.4 µM
same,GI50,NCI-H460 lung,36.3 µM
same,TGI,NCI-H460 lung,> 100 µM
same,GI50,M14 melanoma,40.4 µM
same,TGI,M14 melanoma,> 100 µM
same,GI50,LOX IMVI melanoma,28 µM
same,TGI,LOX IMVI melanoma,> 100 µM
same,GI50,EKVX NSCLC,41.5 µM
same,TGI,EKVX NSCLC,> 100 µM
same,GI50,A549 NSCLC,31.2 µM
same,TGI,A549 NSCLC,> 100 µM
same,GI50,DU-145 prostate,45.3 µM
same,TGI,DU-145 prostate,> 100 µM
same,GI50,BT-549 breast,4.64 µM
same,TGI,BT-549 breast,> 100 µM
same,GI50,IGROV1 ovarian,4.09 µM
same,TGI,IGROV1 ovarian,22.7 µM
same,GI50,RXF 393 renal,1.35 µM
same,TGI,RXF 393 renal,17.4 µM
same,GI50,NCI-H522 lung,28.8 µM
same,TGI,NCI-H522 lung,> 100 µM
same,GI50,MALME-3M melanoma,17.2 µM
same,TGI,MALME-3M melanoma,> 100 µM
same,GI50,SK-MEL-2 melanoma,48.4 µM
same,TGI,SK-MEL-2 melanoma,> 100 µM
same,GI50,NCI-H23 lung,80.8 µM
same,TGI,NCI-H23 lung,> 100 µM
same,GI50,HL-60(TB) leukemia,4.72 µM
same,TGI,HL-60(TB) leukemia,56.5 µM
same,GI50,CAKI-1 renal,9.94 µM
same,TGI,CAKI-1 renal,> 100 µM
